In patent publication US12077503B2, “Substituted cyclic amides and their use as herbicides” (FMC CORPORATION, priority 2015, dated 2024):

Key:
Format in all cases: in vivo
Kochia (Kochia scoparia) [1] = assay: Test A preemergence; conditions: Bassia scoparia, pre-emergence, 240 h, Preemergence
In short: (§1)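 Visual injury, scored on a 0–100 scale relative to untreated controls, was recorded about 10 d after application. Treatments were a preemergence soil spray over planted seeds or a postemergence spray on plants at the one- to two-leaf stage, 2 to 10 cm tall, all in loam soil–sand blend in the greenhouse.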

[2] = tested on: barnyardgrass (Echinochloa crus-galli); assay: Test A preemergence; conditions: Echinochloa crus-galli, pre-emergence, 240 h, Preemergence
In short: as §1

[3] = tested on: giant foxtail (Setaria faberii); assay: Test A preemergence; conditions: Setaria faberi, pre-emergence, 240 h, Preemergence
In short: as §1

[4] = tested on: pigweed (Amaranthus retroflexus); assay: Test A preemergence; conditions: Amaranthus retroflexus, pre-emergence, 240 h, Preemergence
[5] = tested on: ragweed (common ragweed, Ambrosia elatior); assay: Test A preemergence; conditions: Ambrosia artemisiifolia, pre-emergence, 240 h, Preemergence
In short: as §1

[6] = tested on: ryegrass, Italian (Italian ryegrass, Lolium multiflorum); assay: Test A preemergence; conditions: Lolium multiflorum, pre-emergence, 240 h, Preemergence
In short: as §1

[7] = tested on: Galium (catchweed bedstraw, Galium aparine); assay: Test A postemergence; conditions: Galium, post-emergence, 240 h, Postemergence, read-out: Plant response rating, Galium
In short: as §1

Kochia (Kochia scoparia) [8] = assay: Test A postemergence; conditions: Bassia scoparia, post-emergence, 240 h, Postemergence, read-out: Plant response rating, Kochia
In short: as §1

[9] = tested on: barnyardgrass (Echinochloa crus-galli); assay: Test A postemergence; conditions: Echinochloa crus-galli, post-emergence, 240 h, Postemergence, read-out: Plant response rating, Barnyardgrass
In short: as §1

[10] = tested on: blackgrass (Alopecurus myosuroides); assay: Test A postemergence; conditions: Alopecurus myosuroides, post-emergence, 240 h, Postemergence, read-out: Plant response rating, Blackgrass
In short: as §1

corn (Zea mays) = assay: Test A postemergence; conditions: Zea mays, post-emergence, 240 h, Postemergence
In short: as §1

[11] = tested on: giant foxtail (Setaria faberii); assay: Test A postemergence; conditions: Setaria faberi, post-emergence, 240 h, Postemergence, read-out: Plant response rating, Foxtail, Giant
In short: as §1

[12] = tested on: pigweed (Amaranthus retroflexus); assay: Test A postemergence; conditions: Amaranthus retroflexus, post-emergence, 240 h, Postemergence, read-out: Plant response rating, Pigweed
In short: as §1

[13] = tested on: ragweed (common ragweed, Ambrosia elatior); assay: Test A postemergence; conditions: Ambrosia artemisiifolia, post-emergence, 240 h, Postemergence, read-out: Plant response rating, Ragweed
In short: as §1

[14] = tested on: ryegrass, Italian (Italian ryegrass, Lolium multiflorum); assay: Test A postemergence; conditions: Lolium multiflorum, post-emergence, 240 h, Postemergence, read-out: Plant response rating, Ryegrass, Italian
In short: as §1

[15] = tested on: wheat (Triticum aestivum); assay: Test A postemergence; conditions: Triticum aestivum, post-emergence, 240 h, Postemergence, read-out: Plant response rating, Wheat
In short: as §1

[16] = tested on: barnyardgrass (Echinochloa crus-galli); assay: Test B flooded paddy test; conditions: Echinochloa crus-galli, 250 g ai/ha, Flood; 0 to 100 scale where 0 is no effect and 100 is complete control; read-out: Barnyardgrass plant response rating
In short: (§2)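 Visual ratings (0 none to 100 complete control) are relative to untreated plants, taken 13–15 d after treatment in a greenhouse. Test material went straight into floodwater standing 3 cm above the soil, kept constant, on plants at the 2-leaf stage.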

[17] = tested on: ducksalad (Heteranthera limosa); assay: Test B flooded paddy test; conditions: Heteranthera limosa, 250 g ai/ha, Flood; 0 to 100 scale where 0 is no effect and 100 is complete control; read-out: Ducksalad plant response rating
In short: as §2

rice (Oryra sativa) = assay: Test B flooded paddy test; conditions: Oryza sativa, 250 g ai/ha, Flood; 0 to 100 scale where 0 is no effect and 100 is complete control; read-out: Rice plant response rating
In short: as §2

[18] = tested on: sedge, umbrella (small-flower umbrella sedge, Cyperus difformis); assay: Test B flooded paddy test; conditions: Cyperus difformis, 250 g ai/ha, Flood; 0 to 100 scale where 0 is no effect and 100 is complete control; read-out: Sedge, Umbrella plant response rating
In short: as §2

[19] = 125 g ai/ha, visual injury after approximately 10 d, 0 to 100 scale where 0 is no effect and 100 is complete control
[20] = 31 g ai/ha, visual injury after approx. 10 d, 0 to 100 scale, 0 no effect, 100 complete control

CN1CC[C@H](c2ccccc2C(F)(F)F)[C@@H](C(=O)Nc2ccccc2C(F)(F)F)C1=O [Compound 1008]
pest or weed control at 31 g/ha (Kochia (Kochia scoparia) [1]; 31 g ai/ha, 0 to 100 scale where 0 is no effect and 100 is complete control, read-out: Kochia plant response rating): 0% | pest or weed control at 125 g/ha (Kochia (Kochia scoparia) [1]; 125 g ai/ha, visual injury rating after approximately 10 d, read-out: Kochia plant response rating (0 to 100 scale, 0 is no effect, 100 is complete control)): 0% | pest or weed control at 125 g/ha ([2]; 125 g ai/ha, visual injury rating after approximately 10 d, read-out: Barnyardgrass plant response rating (0 to 100 scale, 0 is no effect, 100 is complete control)): 0% | pest or weed control at 31 g/ha ([2]; 31 g ai/ha, 0 to 100 scale (0 no effect, 100 complete control), read-out: Plant response rating, Barnyardgrass): 0% | pest or weed control at 125 g/ha ([3]; 125 g ai/ha, visual injury rating after approximately 10 d, read-out: Foxtail, Giant plant response rating (0 to 100 scale, 0 is no effect, 100 is complete control)): 0% | pest or weed control at 31 g/ha ([3]; 31 g ai/ha, 0 to 100 scale (0 no effect, 100 complete control), read-out: Plant response rating, Foxtail, Giant): 0% | pest or weed control at 31 g/ha ([4]; 31 g ai/ha, 0 to 100 scale where 0 is no effect and 100 is complete control, read-out: Pigweed plant response rating): 0% | pest or weed control at 125 g/ha ([4]; 125 g ai/ha, visual injury rating after approximately 10 d, read-out: Pigweed plant response rating (0 to 100 scale, 0 is no effect, 100 is complete control)): 0% | pest or weed control at 31 g/ha ([5]; 31 g ai/ha, 0 to 100 scale where 0 is no effect and 100 is complete control, read-out: Ragweed plant response rating): 0% | pest or weed control at 125 g/ha ([5]; 125 g ai/ha, visual injury rating after approximately 10 d, read-out: Ragweed plant response rating (0 to 100 scale, 0 is no effect, 100 is complete control)): 0% | pest or weed control at 31 g/ha ([6]; 31 g ai/ha, 0 to 100 scale where 0 is no effect and 100 is complete control, read-out: Ryegrass, Italian plant response rating): 0% | pest or weed control at 125 g/ha ([6]; 125 g ai/ha, visual injury rating after approximately 10 d, read-out: Ryegrass, Italian plant response rating (0 to 100 scale, 0 is no effect, 100 is complete control)): 0% | pest or weed control at 125 g/ha [7, 19]: 0% | pest or weed control at 31 g/ha [7, 20]: 0% | pest or weed control at 125 g/ha (Kochia (Kochia scoparia) [8]; [19]): 0% | pest or weed control at 31 g/ha (Kochia (Kochia scoparia) [8]; [20]): 0% | pest or weed control at 125 g/ha [9, 19]: 0% | pest or weed control at 31 g/ha [9, 20]: 0% | pest or weed control at 125 g/ha [10, 19]: 0% | pest or weed control at 31 g/ha [10, 20]: 0% | Corn plant response rating (crop injury, 0 = no effect, 100 = complete kill) at 125 g/ha (corn (Zea mays); [19]): 0% | Corn plant response rating (crop injury, 0 = no effect, 100 = complete kill) at 31 g/ha (corn (Zea mays); [20]): 0% | pest or weed control at 125 g/ha [11, 19]: 0% | pest or weed control at 31 g/ha [11, 20]: 0% | pest or weed control at 125 g/ha [12, 19]: 0% | pest or weed control at 31 g/ha [12, 20]: 0% | pest or weed control at 125 g/ha [13, 19]: 0% | pest or weed control at 31 g/ha [13, 20]: 0% | pest or weed control at 125 g/ha [14, 19]: 0% | pest or weed control at 31 g/ha [14, 20]: 0% | plant injury at 125 g/ha [15, 19]: 0% | plant injury at 31 g/ha [15, 20]: 0% | pest or weed control at 250 g/ha [16]: 0% | pest or weed control at 250 g/ha [17]: 95% | pest or weed control at 250 g/ha (rice (Oryra sativa)): 0% | pest or weed control at 250 g/ha [18]: 0%
